Several values for one entry are separate records, joined by “and”; a condition that tells them apart may be missing. Equal entries are not always repeated. Results filed as inconclusive are left out. Activity calls are given as the source filed them.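 Rule for the calls: active = compound whose fitted half-maximal dose is at most twice its top tested dose in every repeat; inconclusive = mixed calls across repeats, weak flat response, or unreliable curve fit; inactive = all repeats flat, too weak, or wrong direction.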
What follows are compounds tested against Glycogen synthase kinase-3 beta (Homo sapiens) (UniProt P49841) (assay: GSK3beta kinase inhibitors, SAR follow-up, biochemical, ADP-Glo luminescence, dry powder samples (AID 623998)). Details: GSK3beta ADP-Glo luminescence kinase assay, 60 min.
Glycogen synthase kinase-3 beta (Homo sapiens), sequence (P49841 whole entry, looked up): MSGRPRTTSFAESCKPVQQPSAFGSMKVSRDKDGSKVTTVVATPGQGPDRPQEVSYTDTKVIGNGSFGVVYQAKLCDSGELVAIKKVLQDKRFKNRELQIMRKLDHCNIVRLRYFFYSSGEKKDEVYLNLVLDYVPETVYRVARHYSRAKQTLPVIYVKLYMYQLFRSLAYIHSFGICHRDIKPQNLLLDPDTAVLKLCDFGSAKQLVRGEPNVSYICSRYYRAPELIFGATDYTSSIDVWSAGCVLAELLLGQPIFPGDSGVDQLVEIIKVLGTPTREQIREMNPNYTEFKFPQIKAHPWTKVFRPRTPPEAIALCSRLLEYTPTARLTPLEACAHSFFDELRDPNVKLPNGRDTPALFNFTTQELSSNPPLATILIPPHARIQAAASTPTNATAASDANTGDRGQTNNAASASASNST

| SMILES | AC50 |
| --- | --- |
| Cc1[nH]nc2c1C(c1ccccn1)C1=C(CC(C)(C)CC1=O)N2 (configuration not stated) | 1020 nM |
| COc1ccccc1C1C(C(C)=O)=C(C)Nc2n[nH]c(C)c21 (configuration not stated) | 3000 nM |
| COc1ccccc1C1C2=C(CC(C)(C)CC2=O)Nc2n[nH]c(C(C)(C)C)c21 (configuration not stated) | 834 nM |
| CC1(C)CC(=O)C2=C(C1)Nc1n[nH]c(C(F)(F)F)c1C2c1ccccc1 (configuration not stated) | 35.7 nM |
| O/N=C/c1cn(-c2ccccc2)nc1-c1ccc(Cl)cc1 | 45.2 nM |
| Cc1[nH]nc2c1C(c1cccc(C#N)c1)C1=C(CC(C)(C)CC1=O)N2 (configuration not stated) | 52.3 nM |
| Cc1[nH]nc2c1C(c1cccc(C(F)(F)F)c1)C1=C(CC(C)(C)CC1=O)N2 (configuration not stated) | 199 nM |
| Cc1[nH]nc2c1C(c1ccccc1C(F)(F)F)C1=C(CC(C)(C)CC1=O)N2 (configuration not stated) | 42.5 nM |
| CCc1[nH]nc2c1C(c1ccccc1OC)C1=C(CC(C)(C)CC1=O)N2 (configuration not stated) | 83.3 nM |
| Cc1[nH]nc2c1C(c1ccc(F)cc1Cl)C1=C(CC(C)(C)CC1=O)N2 (configuration not stated) | 2290 nM |
| Cc1[nH]nc2c1C(c1ccn[nH]1)C1=C(CC(C)(C)CC1=O)N2 (configuration not stated) | 1880 nM |
| Cc1[nH]nc2c1C(c1ccc3c(c1)OCO3)C1=C(CC(C)(C)CC1=O)N2 (configuration not stated) | 4610 nM |
| COc1ccccc1C1C2=C(CC(C)(C)CC2=O)Nc2n[nH]c(C)c21 (configuration not stated) | 124 nM |
| COc1ccc(-c2nn(-c3ccccc3)cc2/C=N/O)cc1OC | 617 nM |
| Cc1[nH]nc2c1C(c1ccc(Cl)cc1)C1=C(CC(C)(C)CC1=O)N2 (configuration not stated) | 4440 nM |
| CC1(C)CC(=O)C2=C(C1)Nc1n[nH]c(C(F)(F)F)c1C2c1ccccc1F (configuration not stated) | 184 nM |
| Cc1[nH]nc2c1C(c1cccc(F)c1)C1=C(CC(C)(C)CC1=O)N2 (configuration not stated) | 540 nM |
| COc1ccccc1C1C2=C(CCCC2=O)Nc2n[nH]c(C)c21 (configuration not stated) | 3420 nM |
| Cc1[nH]nc2c1C(c1cccc(Cl)c1)C1=C(CC(C)(C)CC1=O)N2 (configuration not stated) | 919 nM |
| Cc1[nH]nc2c1[C@H](c1ccccc1C(F)(F)F)C1=C(CC(C)(C)CC1=O)N2 | 5570 nM |
| Cc1[nH]nc2c1C(C1CC1)C1=C(CC(C)(C)CC1=O)N2 (configuration not stated) | 3050 nM |
| Cc1[nH]nc2c1C(c1ccccc1Br)C1=C(CC(C)(C)CC1=O)N2 (configuration not stated) | 180 nM |
| COc1ccc(C2C3=C(CC(C)(C)CC3=O)Nc3n[nH]c(C)c32)cc1 (configuration not stated) | 14700 nM |
| Cc1[nH]nc2c1C(c1ccc(C#N)cc1)C1=C(CC(C)(C)CC1=O)N2 (configuration not stated) | 10400 nM |
| COc1ccccc1C1C2=C(CC(C)(C)CC2=O)Nc2[nH]ncc21 (configuration not stated) | 122 nM |
| COc1cccc(-c2nn(-c3ccccc3)cc2/C=N/O)c1 | 1760 nM |
| CC1(C)CC(=O)C2=C(C1)Nc1n[nH]c(C(F)(F)F)c1C2c1ccc(F)cc1C(F)(F)F (configuration not stated) | 173 nM |
| COc1ccccc1C1C2=C(CC(C)(C)CC2=O)Nc2n[nH]c(-c3ccccc3)c21 (configuration not stated) | 1550 nM |
| CC1(C)CC(=O)/C(=C\c2cccc(F)c2C(F)(F)F)C(=Nc2cc(C(F)(F)F)[nH]n2)C1 | 2630 nM |

Next, values leading:

| AC50 | SMILES |
| --- | --- |
| 515 nM | COc1ccccc1C1C2=C(CCC(C)(C)C2=O)Nc2n[nH]c(C)c21 (configuration not stated) |
| 134 nM | Cc1[nH]nc2c1C(c1ccccc1C#N)C1=C(CC(C)(C)CC1=O)N2 (configuration not stated) |
| 28100 nM | Cc1[nH]nc2nc3c(c(-c4cccs4)c12)C(=O)CC(C)(C)C3 |
| 534 nM | Cc1[nH]nc2c1C(C)C1=C(CC(C)(C)CC1=O)N2 (configuration not stated) |
| 455 nM | Cc1ccccc1C1C2=C(CC(C)(C)CC2=O)Nc2n[nH]c(C)c21 (configuration not stated) |
| 614 nM | Cc1cccc(C2C3=C(CC(C)(C)CC3=O)Nc3n[nH]c(C)c32)c1 (configuration not stated) |
| 737 nM | CC(C)c1ccc(-c2nn(-c3ccccc3)cc2/C=N/O)cc1 |
| 415 nM | COc1ccccc1C1C2=C(CC(C)(C)CC2=O)Nc2n[nH]c(C(C)C)c21 (configuration not stated) |
| 32.4 nM | CSc1ccccc1C1C2=C(CC(C)(C)CC2=O)Nc2n[nH]c(C)c21 (configuration not stated) |
| 627 nM | Cc1[nH]nc2c1C(c1cccs1)C1C(=O)CC(C)(C)CC1=N2 (configuration not stated) |
| 37 nM | Cc1[nH]nc2c1[C@@H](c1ccccc1C(F)(F)F)C1=C(CC(C)(C)CC1=O)N2 |
| 451 nM | CC1(C)CC(=O)C2=C(C1)Nc1n[nH]c(C(F)(F)F)c1C2c1cc(F)ccc1F (configuration not stated) |
| 87.5 nM | CC1(C)CC(=O)C2=C(C1)Nc1n[nH]c(C(F)(F)F)c1C2c1c(F)cccc1F (configuration not stated) |
| 403 nM | CC1(C)CC(=O)C2=C(C1)Nc1n[nH]c(C(F)(F)F)c1C2c1cc(F)ccc1OC(F)(F)F (configuration not stated) |
| 3080 nM | CC(C)COc1ccc(-c2nn(-c3ccccc3)cc2/C=N/O)cc1 |
| 2930 nM | O/N=C/c1cn(-c2ccccc2)nc1-c1ccccc1 |
| 1370 nM | Cc1[nH]nc2c1C(c1ccsc1)C1=C(CC(C)(C)CC1=O)N2 (configuration not stated) |
| 11600 nM | Cc1[nH]nc2c1[C@H](c1cccs1)C1=C(CC(C)(C)CC1=O)N2 |
| 23.8 nM | COc1ccccc1[C@@H]1C2=C(CC(C)(C)CC2=O)Nc2n[nH]c(C(F)(F)F)c21 |
| 577 nM | O/N=C/c1cn(-c2ccccc2)nc1-c1ccc2c(c1)OCCO2 |

| AC50 | SMILES |
| --- | --- |
| 50 nM | Cc1[nH]nc2c1C(c1cccc3nonc13)C1=C(CC(C)(C)CC1=O)N2 (configuration not stated) |
| 1590 nM | COc1ccccc1[C@H]1C2=C(CC(C)(C)CC2=O)Nc2n[nH]c(C(F)(F)F)c21 |
| 2960 nM | Cc1[nH]nc2c1C(c1ccc(F)cc1)C1=C(CC(C)(C)CC1=O)N2 (configuration not stated) |
| 3110 nM | CC1(C)CC(=O)/C(=C\c2ccccc2C(F)(F)F)C(=Nc2cc(C(F)(F)F)[nH]n2)C1 |
| 1910 nM | Cc1[nH]nc2c1[C@@H](c1cccs1)C1=C(CC(C)(C)CC1=O)N2 |
| 308 nM | Cc1[nH]nc2c1C(C)(c1ccccc1)C1=C(CC(C)(C)CC1=O)N2 (configuration not stated) |
| 278 nM | COc1ccccc1C1C2=C(CC3(CCCCC3)CC2=O)Nc2n[nH]c(C)c21 (configuration not stated) |
| 7500 nM | COc1ccccc1/C=C1\C(=O)CC(C)(C)CC1=Nc1cc(C(F)(F)F)[nH]n1 |
| 313 nM | Cc1ccc(-c2nn(-c3ccccc3)cc2/C=N/O)cc1 |
| 9290 nM | Cc1[nH]nc2c1C(c1ccc(C(F)(F)F)cc1)C1=C(CC(C)(C)CC1=O)N2 (configuration not stated) |
| 4990 nM | Cc1[nH]nc2c1C(c1ccc(Br)cn1)C1=C(CC(C)(C)CC1=O)N2 (configuration not stated) |
| 1160 nM | COc1cccc(C2C3=C(CC(C)(C)CC3=O)Nc3n[nH]c(C)c32)c1 (configuration not stated) |
| 300 nM | Cc1[nH]nc2c1C(c1ccccc1Cl)C1=C(CC(C)(C)CC1=O)N2 (configuration not stated) |
| 1140 nM | Cc1[nH]nc2c1C(c1ccc(Cl)s1)C1=C(CC(C)(C)CC1=O)N2 (configuration not stated) |
| 51.3 nM | CC1(C)CC(=O)C2=C(C1)Nc1n[nH]c(C(F)(F)F)c1C2c1cc(F)ccc1C(F)(F)F (configuration not stated) |
| 440 nM | O/N=C/c1cn(-c2ccccc2)nc1-c1ccc(F)cc1 |
| 13.2 nM and 128 nM | COc1ccccc1C1C2=C(CC(C)(C)CC2=O)Nc2n[nH]c(C(F)(F)F)c21 (configuration not stated) |
| 408 nM | Cc1[nH]nc2c1C(c1cccnc1)C1=C(CC(C)(C)CC1=O)N2 (configuration not stated) |
| 807 nM | O=S(=O)(Nc1ccccn1)c1ccc(N=Cc2c(O)[nH]c3ccc4ncsc4c23)cc1 |
| 2160 nM | Cc1ccc(C2C3=C(CC(C)(C)CC3=O)Nc3n[nH]c(C)c32)cc1 (configuration not stated) |

Same assay, conditions: GSK3beta ADP-Glo luminescence kinase assay, 60 min; at 46 µM (top of the series)

| activity, negative = inhibition | SMILES |
| --- | --- |
| inactive | COc1ccc(-c2nn(-c3ccccc3)cc2C(=O)O)cc1 |
| inactive | COc1ccccc1C1C2=C(CC(C)(C)CC2=O)Nc2ccccc21 (configuration not stated) |
| inactive | CN(C)Cc1cn(-c2ccccc2)nc1-c1ccccc1 |

— PubChem BioAssay AID623998 (Broad Institute, 2012)
